Source: PMC10866072, “Design, synthesis, molecular modelling and biological evaluation of novel 6-amino-5-cyano-2-thiopyrimidine derivatives as potent anticancer agents against leukemia and apoptotic inducers” (Journal of Enzyme Inhibition and Medicinal Chemistry, 2024)

Tests used:
[1] = tested on: U251; format: cell-based; conditions: one dose 10^-5 M, 48 h
[2] = tested on: HCT-116; format: cell-based; conditions: one dose 10^-5 M, 48 h
[3] = tested on: MCF7; format: cell-based; conditions: one dose 10^-5 M, 48 h
[4] = tested on: LOX IMVI; format: cell-based; conditions: one dose 10^-5 M, 48 h
[5] = tested on: SF-539; format: cell-based; conditions: one dose 10^-5 M, 48 h
[6] = tested on: SK-MEL-5; format: cell-based; conditions: one dose 10^-5 M, 48 h
[7] = tested on: SNB-75; format: cell-based; conditions: one dose 10^-5 M, 48 h
[8] = tested on: NCI-H23; format: cell-based; conditions: one dose 10^-5 M, 48 h
[9] = tested on: EKVX; format: cell-based; conditions: one dose 10^-5 M, 48 h
[10] = tested on: A549/ATCC; format: cell-based; conditions: one dose 10^-5 M, 48 h
[11] = tested on: SK-MEL-2; format: cell-based; conditions: one dose 10^-5 M, 48 h
[12] = tested on: UACC-257; format: cell-based; conditions: one dose 10^-5 M, 48 h
[13] = tested on: MOLT-4; format: cell-based; conditions: one dose 10^-5 M, 48 h
[14] = tested on: PC-3; format: cell-based; conditions: one dose 10^-5 M, 48 h
[15] = tested on: SR; format: cell-based; conditions: one dose 10^-5 M, 48 h
[16] = tested on: CAKI-1; format: cell-based; conditions: one dose 10^-5 M, 48 h
[17] = tested on: NCI-H226; format: cell-based; conditions: one dose 10^-5 M, 48 h
[18] = tested on: SF-268; format: cell-based; conditions: one dose 10^-5 M, 48 h
[19] = tested on: MALME-3M; format: cell-based; conditions: one dose 10^-5 M, 48 h
[20] = tested on: HL-60(TB); format: cell-based; conditions: one dose 10^-5 M, 48 h
[21] = tested on: SNB-19; format: cell-based; conditions: one dose 10^-5 M, 48 h
[22] = tested on: SF-295; format: cell-based; conditions: one dose 10^-5 M, 48 h
[23] = tested on: IGROV1; format: cell-based; conditions: one dose 10^-5 M, 48 h
[24] = tested on: MDA-MB-435; format: cell-based; conditions: one dose 10^-5 M, 48 h
[25] = tested on: DU-145; format: cell-based; conditions: one dose 10^-5 M, 48 h
[26] = tested on: RPMI-8226; format: cell-based; conditions: one dose 10^-5 M, 48 h
[27] = tested on: HCC-2998; format: cell-based; conditions: one dose 10^-5 M, 48 h
[28] = tested on: A498; format: cell-based; conditions: one dose 10^-5 M, 48 h
[29] = tested on: OVCAR-5; format: cell-based; conditions: one dose 10^-5 M, 48 h
[30] = tested on: HCT-15; format: cell-based; conditions: one dose 10^-5 M, 48 h
[31] = tested on: CCRF-CEM; format: cell-based; conditions: one dose 10^-5 M, 48 h
[32] = tested on: UACC-62; format: cell-based; conditions: one dose 10^-5 M, 48 h
[33] = tested on: HOP-62; format: cell-based; conditions: one dose 10^-5 M, 48 h
[34] = tested on: HT29; format: cell-based; conditions: one dose 10^-5 M, 48 h
[35] = tested on: HS 578T; format: cell-based; conditions: one dose 10^-5 M, 48 h; HS 578T
[36] = tested on: OVCAR-8; format: cell-based; conditions: one dose 10^-5 M, 48 h
[37] = tested on: KM12; format: cell-based; conditions: one dose 10^-5 M, 48 h
[38] = tested on: TK-10; format: cell-based; conditions: one dose 10^-5 M, 48 h
[39] = tested on: SK-MEL-28; format: cell-based; conditions: one dose 10^-5 M, 48 h
[40] = tested on: T-47D; format: cell-based; conditions: one dose 10^-5 M, 48 h
[41] = tested on: SK-OV-3; format: cell-based; conditions: one dose 10^-5 M, 48 h
[42] = tested on: OVCAR-4; format: cell-based; conditions: one dose 10^-5 M, 48 h
[43] = tested on: NCI-H522; format: cell-based; conditions: one dose 10^-5 M, 48 h
[44] = tested on: K-562; format: cell-based; conditions: one dose 10^-5 M, 48 h
[45] = tested on: RXF 393; format: cell-based; conditions: one dose 10^-5 M, 48 h
[46] = tested on: SW-620; format: cell-based; conditions: one dose 10^-5 M, 48 h
[47] = tested on: NCI-H460; format: cell-based; conditions: one dose 10^-5 M, 48 h
[48] = tested on: SN12C; format: cell-based, human; conditions: one dose 10^-5 M, 48 h
[49] = tested on: full NCI 60 cell lines panel
[50] = tested on: OVCAR-3; format: cell-based; conditions: one dose 10^-5 M, 48 h
[51] = tested on: ACHN; format: cell-based; conditions: one dose 10^-5 M, 48 h
[52] = tested on: MDA-MB-231/ATCC; format: cell-based; conditions: one dose 10^-5 M, 48 h
[53] = tested on: HOP-92; format: cell-based; conditions: one dose 10^-5 M, 48 h
[54] = tested on: 786-0; format: cell-based; conditions: one dose 10^-5 M, 48 h
[55] = tested on: MDA-MB-468; format: cell-based; conditions: one dose 10^-5 M, 48 h
[56] = tested on: UO-31; format: cell-based; conditions: one dose 10^-5 M, 48 h
[57] = tested on: M14; format: cell-based; conditions: one dose 10^-5 M, 48 h

3-Amino-4–(4-chlorophenyl)-1H-pyrazolo[3,4-d] pyrimidine-6-thiol [Compound 3b]
% growth [1]: 101.98% | % growth [2]: 102.04% | % growth [3]: 94.30% | % growth [4]: 103.05% | % growth [5]: 98.83% | % growth [6]: 95.82% | % growth [7]: 94.54% | % growth [8]: 103.30% | % growth [9]: 96.85% | % growth [10]: 100.87% | % growth [11]: 108.20% | % growth [12]: 106.44% | % growth [13]: 92.74% | % growth [14]: 101.93% | % growth [15]: 91.21% | % growth [16]: 93.47% | % growth [17]: 107.48% | % growth [18]: 103.53% | % growth [19]: 100.39% | % growth [20]: 82.04% | % growth [21]: 92.80% | % growth [22]: 89.90% | % growth [23]: 96.70% | % growth [24]: 98.24% | % growth [25]: 101.49% | % growth [26]: 90.84% | % growth [27]: 100.20% | % growth [28]: 109.21% | % growth [29]: 108.35% | % growth [30]: 103.06% | % growth [31]: 92.49% | % growth [32]: 100.93% | % growth [33]: 106.23% | % growth [34]: 95.28% | % growth [35]: 111.10% | % growth [36]: 104.96% | % growth [37]: 100.80% | % growth [38]: 114.88% | % growth [39]: 107.34% | % growth [40]: 86.49% | % growth [41]: 106.45% | % growth [42]: 98.54% | % growth [43]: 84.30% | % growth [44]: 94.65% | % growth [45]: 103.75% | % growth [46]: 102.78% | % growth [47]: 107.05% | % growth [48]: 97.55% | activity on all 60 cancer cell lines tested (in words) ([49]; one dose): weak activity | Mean % growth ([49]; one dose 10^-5 M, 48 h, mean over all cell lines): 100.23% | % growth [50]: 113.31% | % growth [51]: 102.63% | % growth [52]: 98.65% | % growth [53]: 100.46% | % growth [54]: 99.34% | % growth [55]: 106.46% | % growth [56]: 92.69% | % growth [57]: 107.99%
